Earlier results as cited in paper PMC10817174, “Integrated drug response prediction models pinpoint repurposed drugs with effectiveness against rhabdomyosarcoma” (PLOS ONE, 2024).

How the values were obtained:
GDSC-SJCRH30 cell line = details: Table S2, published drug response ref Iorio et al. (2016); cited from earlier work
GDSC-RD cell line = details: Table S2, published drug response ref Iorio et al. (2016); cited from earlier work

| Compound | Iorio_SJCRH30 (GDSC-SJCRH30 cell line) | Iorio_RD (GDSC-RD cell line) |
| --- | --- | --- |
| Cc1cnc(CNC(=O)c2c(=O)c3ccc(N4CCCN(C)CC4)nc3n3c2sc2ccccc23)cn1 [CX-5461] | R | S |
| COC(=O)CNC(=O)C(=O)OC [DMOG] | R | R |
| CC(C)(C)c1nc(-c2cccc(NS(=O)(=O)c3c(F)cccc3F)c2F)c(-c2ccnc(N)n2)s1 [Dabrafenib] | R | R |
| COc1cccc2c1C(=O)c1c(O)c3c(c(O)c1C2=O)C[C@@](O)(C(=O)CO)C[C@@H]3O[C@H]1C[C@H](N)[C@H](O)[C@H](C)O1 [Doxorubicin] | R | R |
| O=c1cc(CN2CCOCC2)occ1OCCCCCSc1ccnc2cc(C(F)(F)F)ccc12 [EHT-1864] | R | R |
| CCOc1cc2ncc(C#N)c(Nc3ccc(F)c(Cl)c3)c2cc1NC(=O)/C=C/CN(C)C [EKB-569] | R | R |
| CCCCCCCCCCCC1=C(O)C(=O)C=C(O)C1=O [Embelin] | R | R |
| C/C(=C\c1csc(C)n1)[C@@H]1C[C@@H]2O[C@]2(C)CCC[C@H](C)[C@H](O)[C@@H](C)C(=O)C(C)(C)[C@@H](O)CC(=O)O1 [Epothilone-B] | R | R |
| COc1cc([C@@H]2c3cc4c(cc3[C@@H](O[C@@H]3O[C@@H]5CO[C@@H](C)O[C@H]5[C@H](O)[C@H]3O)[C@H]3COC(=O)[C@H]23)OCO4)cc(OC)c1O [Etoposide] | R | R |
| Cc1cc([N+](=O)[O-])ccc1NS(=O)(=O)c1cc(Cl)ccc1Cl [FH535] | R | R |
| O=C(/C=C/c1cccnc1)NCCCCC1CCN(C(=O)c2ccccc2)CC1 [FK866] | R | R |
| Cc1ccc(-c2c(C(=O)CF)n(CCCO)c3ncnc(N)c23)cc1 [FMK] | R | R |
| Nc1[nH]nc2nnc(-c3c(-c4ccccc4)nn4ccccc34)cc12 [FR-180204] | R | R |
| COC(=O)[C@H](CCSC)NC(=O)c1ccc(NC[C@@H](N)CS)cc1-c1ccccc1 [FTI-277] | R | R |
| CC1=C(C(=O)Nc2cc3cn[nH]c3cc2F)C(c2ccc(C(F)(F)F)cc2)CC(=O)N1 (stereo not drawn) [GSK429286A] | R | R |
| CCn1c(-c2nonc2N)nc2c(C#CC(C)(C)O)ncc(OC[C@H]3CCCNC3)c21 [GSK690693] | S | R |
| COc1ncc(-c2ccc3nccc(-c4ccnnc4)c3c2)cc1NS(=O)(=O)c1ccc(F)cc1F [GSK2126458] | R | R |
| O=C(O)c1ccc(-c2c[nH]c3ncc(-c4ccccc4)cc23)cc1C1CCCC1 [GSK-650394] | R | R |
| CCc1cc(Nc2nccc(-c3c(-c4ccc(OC)c(C(=O)Nc5c(F)cccc5F)c4)nc4ccccn34)n2)c(OC)cc1N1CCC(N2CCN(S(C)(=O)=O)CC2)CC1 [GSK-1904529A] | R | R |
| COc1ccc(COc2ccc(Cc3cnc(N)nc3N)cc2OC)cc1 [GW-2580] | R | R |
| Nc1ccn([C@@H]2O[C@H](CO)[C@@H](O)C2(F)F)c(=O)n1 [Gemcitabine] | R | R |

| Compound | Iorio_SJCRH30 (GDSC-SJCRH30 cell line) | Iorio_RD (GDSC-RD cell line) |
| --- | --- | --- |
| CCN1CCN(Cc2ccc(NC(=O)c3ccc(C)c(/C=C/c4cnc5[nH]ccc5c4OC)c3)cc2C(F)(F)F)CC1 [HG-6-64-1] | R | R |
| O=C(O)CNC(=O)c1c(O)c2ccccc2n(Cc2ccccc2)c1=O [IOX2] | R | R |
| Oc1ccc2ccccc2c1SSc1c(O)ccc2ccccc12 [IPA-3] | R | R |
| c1ccc2c(CCNc3ccc(Nc4ccncc4)cc3)c[nH]c2c1 [JNJ-26854165] | R | R |
| COc1cc(OC)cc(-c2ccc3ncc4ccc(=O)n(-c5ccc(N6CCNCC6)c(C(F)(F)F)c5)c4c3c2)c1 [JW-7-24-1] | R | R |
| O=C(NC(COc1ccc2[nH]c(=O)[nH]c2c1)c1ccccc1)c1cccn(Cc2ccc(F)c(F)c2)c1=O (stereo not drawn) [KIN001-244] | R | R |
| CCN1CCC(n2cc(CNc3cc(Cl)c4ncc(C#N)c(Nc5ccc(F)c(Cl)c5)c4c3)nn2)CC1 [KIN001-266] | R | R |
| O=C(/C=C/c1ccc(CN(CCO)CCc2c[nH]c3ccccc23)cc1)NO [LAQ824] | R | R |
| C/C(O)=C(\C#N)C(=O)Nc1cc(Br)ccc1Br [LFM-A13] | R | R |
| Cn1cc(C2=C(c3cn(C4CCN(Cc5ccccn5)CC4)c4ccccc34)C(=O)NC2=O)c2ccccc21 [LY317615] | R | R |
| NS(=O)(=O)OC[C@@H]1C[C@@H](n2ccc3c(N[C@H]4CCc5ccccc54)ncnc32)C[C@@H]1O [MLN4924] | R | R |
| S=C(NCc1ccc2c(c1)OCO2)N1CCN(c2ncnc3c2oc2ccccc23)CC1 [MP470] | R | R |
| COc1cc(N2CCC(O)CC2)ccc1Nc1cc(Nc2ccccc2S(=O)(=O)C(C)C)c2cc[nH]c2n1 [MPS-1-IN-1] | R | R |
| Cc1ccc(NC(=O)c2ccc(CN3CCN(C)CC3)cc2)cc1Nc1nc(-c2cccnc2)cs1 [Masitinib] | R | R |
| CO[C@@H]1[C@H](N(C)C(=O)c2ccccc2)C[C@H]2O[C@]1(C)n1c3ccccc3c3c4c(c5c6ccccc6n2c5c31)C(=O)NC4 [Midostaurin] | R | R |
| CO[C@@]12[C@H](COC(N)=O)C3=C(C(=O)C(C)=C(N)C3=O)N1C[C@@H]1N[C@@H]12 [Mitomycin-C] | R | R |
| CCN1CCN(Cc2ccc(NC(=O)c3ccc(C)c(Oc4ccnc5[nH]ccc45)c3)cc2C(F)(F)F)CC1 [NG-25] | R | R |
| O=S(=O)(O)c1ccc2cc(N=Nc3cc(S(=O)(=O)O)c4cccnc4c3O)ccc2c1 [NSC-87877] | R | R |
| Cc1ccc(C(=O)Nc2cccc(C(F)(F)F)c2)cc1Nc1nc(-c2cccnc2)nc2c1cnn2C [NVP-BHG712] | R | R |
| COc1cccc2cc(-c3nc([C@H]4CC[C@H](C(=O)O)CC4)n4ncnc(N)c34)[nH]c12 [OSI-027] | R | R |
| C[C@]1(O)C[C@@H](c2nc(-c3ccc4ccc(-c5ccccc5)nc4c3)c3c(N)nccn32)C1 [OSI-906] | S | S |

| Compound | Iorio_SJCRH30 (GDSC-SJCRH30 cell line) | Iorio_RD (GDSC-RD cell line) |
| --- | --- | --- |
| O=C(Nc1ccc(OC(F)(F)F)cc1)c1sccc1NCc1ccnc2ccccc12 [OSI-930] | R | R |
| NCC(=O)Nc1ccc(-n2nc(C(F)(F)F)cc2-c2ccc3c(ccc4ccccc43)c2)cc1 [OSU-03012] | R | R |
| COC1=CC(c2cc3ccccc3[nH]2)=N/C1=C\c1[nH]c(C)cc1C [Obatoclax-Mesylate] | R | R |
| COc1cc(O)c2c(c1)/C=C/C[C@H](O)[C@H](O)C(=O)/C=C\C[C@H](C)OC2=O [Oxozeaenol] | R | S |
| C=CCc1cccc(/C=N/NC(=O)CN2CCN(Cc3ccccc3)CC2)c1O [PAC-1] | R | R |
| CN(c1ncccc1CNc1nc(Nc2ccc3c(c2)CC(=O)N3)ncc1C(F)(F)F)S(C)(=O)=O [PF-562271] | R | R |
| CCc1cncnc1N1CCN(Cc2nc3ccc(C(F)(F)F)cc3[nH]2)CC1 [PF-4708671] | R | R |
| COc1ccccc1S(=O)(=O)Nc1ccc2c(c1)CN(C)C(=O)N2 [PFI-1] | R | R |
| CC(C)CC(=O)Nc1[nH]nc2c1CN(C(=O)C1CCN(C)CC1)C2(C)C [PHA-793887] | R | R |
| Oc1cccc(-c2nc(N3CCOCC3)c3oc4ncccc4c3n2)c1 [PI-103] | R | R |
| CC(=O)Nc1nc(C)c(-c2ccc(Cl)c(S(=O)(=O)NCCO)c2)s1 [PIK-93] | R | R |
| Cc1ccc(Nc2nccc(N(C)c3ccc4c(C)n(C)nc4c3)n2)cc1S(N)(=O)=O [Pazopanib] | R | R |
| [H]/N=C(/N)N/C(=N/[H])NCCc1ccccc1 [Phenformin] | R | R |
| C=CC(=O)Nc1cc(-n2c(=O)ccc3cnc4ccc(-c5cn[nH]c5)cc4c32)ccc1C [QL-X-138] | R | R |
| C=CC(=O)Nc1cc(NC(=O)c2ccc(C)c(NC(=O)c3ccno3)c2)cc(C(F)(F)F)c1 [QL-XI-92] | S | S |
| OC[C@H](Cc1ccccc1)Nc1nc(Oc2ccc3c(c2)CCC3)nc2c1ncn2Cc1ccc(-c2ccccc2)cc1 [QS11] | R | R |
| N#CC[C@H](C1CCCC1)n1cc(-c2ncnc3[nH]ccc23)cn1 [Ruxolitinib] | R | R |
| Cc1cccc(-c2[nH]c(C(C)(C)C)nc2-c2ccc3nccnc3c2)n1 [SB52334] | R | R |
| Cc1cccc(-c2[nH]c(C(C)(C)C)nc2-c2ccc3c(c2)OCO3)n1 [SB-505124] | R | R |
| Cc1ccc(C(=O)N(CCCN)[C@@H](c2nc3cc(Cl)ccc3c(=O)n2Cc2ccccc2)C(C)C)cc1 [SB-715992] | R | R |
| CC(C)N(CCCNC(=O)Nc1ccc(C(C)(C)C)cc1)C[C@H]1O[C@@H](n2cc(Br)c3c(N)ncnc32)[C@H](O)[C@@H]1O [SGC0946] | R | R |
